Results taken from the supplement of paper PMC10933113.
Counter-ions that a name gives are not always drawn. ± gives the uncertainty stated by the source.

Key:
[1] = test system: KeratinoSens (HaCaT ARE-luciferase) cells; experiment: AC50 of Nrf2/ARE luciferase induction; higher = less potent; conditions: exposure time: 24 h
THP-1 = experiment: efficacy of IL-8 induction relative to DMSO (% activity); higher = stronger induction; conditions: exposure time: 18 h
[2] = test system: KeratinoSens (HaCaT ARE-luciferase) cells; experiment: efficacy of ARE luciferase induction relative to DMSO (% activity over DMSO); higher = stronger induction; conditions: exposure time: 24 h
[3] = test system: lysine peptide Ac-RFAAKAA-COOH; experiment: efficacy of lysine peptide change (negative = depletion) (% activity); higher = less depletion; conditions: incubation time: 24 h
[4] = test system: cysteine peptide Ac-RFAACAA-COOH; experiment: efficacy of cysteine peptide change (negative = depletion) (% activity); higher = less depletion; conditions: incubation time: 24 h
[5] = test system: cysteine peptide Ac-RFAACAA-COOH; experiment: AC50 of cysteine peptide concentration-response (direction given by sign of efficacy); higher = less potent; conditions: incubation time: 24 h
[6] = test system: KeratinoSens (HaCaT ARE-luciferase) cells; experiment: cytotoxicity AC50 (CellTiter-Fluor viability); higher = less cytotoxic; conditions: exposure time: 24 h

| efficacy of lysine peptide change [3] | efficacy of cysteine peptide change [4] | AC50 [5] | Compound | AC50 of Nrf2/ARE luciferase induction [1] | efficacy of IL-8 induction (THP-1) | efficacy of ARE luciferase induction [2] | cytotoxicity AC50 [6] |
| --- | --- | --- | --- | --- | --- | --- | --- |
|  |  |  | OC12N=C(c3ccccc3)SC1Cc1cc(Cl)ccc12 (stereo unspecified) [HMR1426] | 28.9 µM | 0 | 86.8 ± 69 |  |
| 35.1 ± 5 | 2.67 ± 4.6 |  | CCOc1ccc2nc(S(N)(=O)=O)sc2c1 [Ethoxzolamide] | 25.3 µM | 10.3 ± 4.8 | 58.7 ± 28 |  |
| 2.29 ± 4 | -105 ± 8.9 | 31 ± 7.8 µM | Nc1cc(-c2ccncc2)c[nH]c1=O [Amrinone] |  | 11.6 ± 10 | 11.6 ± 5.4 |  |
| 166 ± 21 | 38.5 ± 11 |  | C=CCOC(Cn1ccnc1)c1ccc(Cl)cc1Cl (stereo unspecified) [Imazalil sulfate] | 29.9 µM | 0 | 40.5 ± 36 |  |
| -19.7 ± 2.9 | -104 ± 23 | 41.1 ± 17 µM | CC1=C(/C=C/C(C)=C\C=C\C(C)=C\C(=O)O)C(C)(C)CCC1 [9-cis Retinoic acid] |  | 4.41 ± 7.6 | 47.6 ± 16 |  |
| 30.4 ± 65 | -75.2 ± 18 | 38.5 ± 5.3 µM | CC[C@@]1(O)C(=O)OCc2c1cc1n(c2=O)Cc2c-1nc1ccccc1c2/C=N/OC(C)(C)C [Gimatecan] |  | 24.2 ± 3.5 | 57.7 ± 22 | 0.99 ± 0.6 µM |
| 67 ± 6.6 | 5 ± 8.7 |  | O=C(NS(=O)(=O)/C=C/c1ccccc1)c1ccc(F)cc1Cl | 38.7 µM | 0 | 82.9 ± 22 |  |
| 22 ± 20 | -10.9 ± 9.8 |  | O=c1cc(-c2ccccc2)oc2cc(O)cc(O)c12 [Chrysin] | 53.6 µM | 13.2 ± 3.6 | 210 ± 48 |  |
| -21.2 ± 2.9 | -99.8 ± 5.5 | 13.7 ± 2.3 µM | CCCCC/C=C\C=C\C(=O)OCC [Ethyl (2E,4Z)-deca-2,4-dienoate] |  | 24.4 ± 5.7 | 68.2 ± 0.72 |  |
| 90.8 ± 51 | 0 |  | O=C(OCc1ccccc1)c1ccc(O)cc1 [Benzylparaben] | 12.1 µM | 0 | 52.2 ± 9.2 |  |
| -2.31 ± 13 | 26.5 |  | CC(C)=CCC1=C(O)c2ccccc2C(=O)C1=O [Lapachol] | 26.7 µM | 25.8 ± 1.6 | 65.3 ± 5.4 |  |
| -108 ± 8.9 | -117 ± 12 | 10.6 ± 2.4 µM | Cc1occc1S [2-Methyl-3-furanthiol] |  | 14 ± 8.6 | 34.9 ± 23 |  |
| -14.7 ± 8 | -72.3 ± 21 | 4.77 ± 1.4 µM | O=C1c2cccc(O)c2C(=O)c2c(O)cccc21 [Danthron] |  | 2.66 ± 9.7 | 15 ± 14 |  |
| 11.2 ± 11 | -110 ± 11 | 50.1 µM | NC(=O)n1c(O)c(C(=O)c2cccs2)c2cc(Cl)ccc21 [Tenidap*] |  | 4.22 ± 7.3 | 19.7 ± 5.4 | 53.4 ± 15 µM |
| -14.3 ± 14 | -69.9 ± 28 | 2.44 ± 1.8 µM | Oc1c(Br)cc(Br)c2cccnc12 [Broxyquinoline] |  | 55.7 ± 43 | -33.3 ± 3 | 4 ± 0.46 µM |
| 3.09 ± 20 | -71.2 ± 22 | 38.7 ± 6.6 µM | CC1=C(/C=C/C(C)=C/C=C/C(C)=C/C=O)C(C)(C)CCC1 [13-cis-Retinal (Vitamin A aldehyde)] |  | 3.58 ± 6.2 | -8.45 ± 12 |  |
| 43.7 ± 15 | -49.4 ± 8.4 | 66.8 ± 29 µM | N#Cc1nc(Cl)c(Cl)c(Cl)c1Cl [3,4,5,6-Tetrachloro-2-pyridinecarbonitrile] |  | 85.9 ± 32 | 38 ± 64 | 10 ± 3.6 µM |
| 62.9 ± 22 | -97 ± 11 | 8.35 ± 4.5 µM | O=[N+]([O-])c1ccc(O/N=C/c2cc(Br)c(O)c(Br)c2)c([N+](=O)[O-])c1 [Bromofenoxim] |  | 0 | 12.5 ± 12 | 34.2 ± 2.2 µM |
| -21.2 ± 1.8 | -84.3 ± 8.4 | 0.19 ± 0.07 µM | Nc1ccc2cc3ccccc3cc2c1 [2-Aminoanthracene] |  | 22.1 ± 0.99 | 25.1 ± 4.7 |  |
| -0.11 ± 21 | -94.5 ± 8 | 3.18 ± 0.37 µM | NC(=S)NC(N)=S [2,4-Dithiobiuret] |  | 15.5 ± 4.3 | 59.4 ± 25 |  |
| -12.3 ± 2.6 | -90.5 ± 15 | 4.03 ± 0.75 µM | Clc1ccc2c(c1)Nc1ccccc1S2 [2-Chlorophenothiazine] |  | 7.79 ± 8 | 28.3 ± 36 |  |
| -45.6 ± 7.5 | -93.8 ± 6.2 | 0.27 ± 0.14 µM | Nc1cc(Cl)c(O)c(Cl)c1 [4-Amino-2,6-dichlorophenol] |  | 61.6 ± 34 | 99.2 ± 100 |  |
| -107 ± 3.6 | -105 ± 11 | 4.18 ± 2.3 µM | O=C(O)c1cc(O)c2ccccc2c1O [1,4-dihydroxy-2-naphthoic acid*] |  | 31.2 ± 8.8 | -34 ± 5.3 | 13.7 ± 2.3 µM |

| Compound | efficacy of lysine peptide change [3] | efficacy of cysteine peptide change [4] | AC50 [5] | AC50 of Nrf2/ARE luciferase induction [1] | efficacy of IL-8 induction (THP-1) | efficacy of ARE luciferase induction [2] | cytotoxicity AC50 [6] |
| --- | --- | --- | --- | --- | --- | --- | --- |
| CCOP(=S)(OCC)Oc1nc(Cl)c(Cl)cc1Cl [Chlorpyrifos] | 26.7 ± 11 | -97.5 ± 7.8 | 9.18 ± 2.6 µM |  | 8.52 ± 1.5 | 32.7 ± 17 |  |
| CCCOC/C(=N\c1ccc(Cl)cc1C(F)(F)F)n1ccnc1 [Triflumizole] | 41.1 ± 13 | 4.17 ± 7.2 |  | 63.9 µM | 38.3 ± 1.3 | 134 ± 58 |  |
| NNCc1ccccc1 [BENZYLHYDRAZINE HYDROCHLORIDE] |  | -43 ± 5.2 | 35.6 ± 4.1 µM |  | 3.79 ± 6.6 | 50.8 ± 24 |  |
| OCc1ccco1 [Furfuryl alcohol] | -37.2 ± 5.8 | -74.1 ± 7.2 | 74.3 ± 13 µM |  | 0 | 37.8 ± 37 |  |
| Nc1cc(Cl)ccc1O [2-Amino-4-chlorophenol] | -22.2 ± 9 | -103 ± 8.1 | 2.44 ± 1.1 µM |  | 14 ± 3 | 60.7 ± 16 | 48.3 ± 3.1 µM |
| O=C1C=CC(=O)c2ccccc21 [1,4-NAPHTHOQUINONE*] | -25.7 ± 2.1 | -107 ± 5.1 | 0.53 ± 0.2 µM |  | 37.7 ± 15 | -40.2 ± 8.4 | 8.95 ± 1 µM |
| Nc1ccc2ccccc2c1 [2-Naphthylamine] | -10.1 ± 12 | -65.5 ± 4.2 | 0.53 ± 0.23 µM |  | 5.33 ± 9.2 | 111 ± 32 | 70.8 µM |
| N#CCC#N [Propanedinitrile] | 8.33 ± 14 | -64.6 ± 10 | 72.9 ± 20 µM |  | 0 | 31.6 ± 5.9 |  |
| COP(=S)(OC)Oc1nc(Cl)c(Cl)cc1Cl [Chlorpyrifos-methyl] | 32.7 ± 12 | -104.3 ± 0.97 | 6.5 ± 1.8 µM |  | 0 | 29.7 ± 29 |  |
| O=C(N/N=C/c1ccc([N+](=O)[O-])o1)c1cc([N+](=O)[O-])cc([N+](=O)[O-])c1O [Nifursol] | -10.9 ± 19 | -105 ± 6.6 | 77.9 ± 29 µM |  | 0 | 25.2 ± 9.3 |  |
